pIC50: −log10 of the molar value.
What follows are compounds tested against GTPase KRas (Homo sapiens, UniProt P01116, G12D) (assay: Inhibition of KRAS G12D mutant in human PANC-1 cells assessed as reduction in phosphorylation of ERK 1/2 level incubated for 3 hrs).
Assay type: cell-based

Chain of GTPase KRas (P01116 whole entry G12D): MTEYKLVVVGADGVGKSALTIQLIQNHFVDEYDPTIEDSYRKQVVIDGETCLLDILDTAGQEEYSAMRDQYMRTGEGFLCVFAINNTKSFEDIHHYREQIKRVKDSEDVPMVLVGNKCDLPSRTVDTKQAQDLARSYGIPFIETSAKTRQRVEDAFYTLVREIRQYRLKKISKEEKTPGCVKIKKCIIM

SMILES | pIC50
C#Cc1c(F)ccc2cc(O)cc(-c3ncc4c(N5CC6CCC(C)(C5)N6)cc(OC[C@@]56CCCN5C[C@H](F)C6)nc4c3F)c12 (stereo partly drawn) | 7.62
Oc1cc(N2CCc3c(nc(OCC45CCCN4CCC5)nc3N3C[C@H]4CC[C@@H](C3)N4)C2)c2c(Cl)cccc2c1 | 7.82
CCc1c(F)ccc2cc(O)cc(-c3ncc4c(N5C[C@H]6CC[C@@H](C5)N6)cc(C#C[C@@]56CCCN5C[C@H](F)C6)nc4c3F)c12 | 6.52
C#Cc1c(F)ccc2cc(O)cc(-c3ncc4c(N5C[C@H]6CC[C@@H](C5)N6)cc(C#C[C@@]56CCCN5C[C@H](F)C6)nc4c3F)c12 | 6.36

Further lines, results first:

pIC50 | SMILES
8.02 | C#Cc1cccc2cc(O)cc(-c3ncc4c(N5C[C@H]6CC[C@@H](C5)N6)cc(OC[C@@]56CCCN5C[C@H](F)C6)nc4c3F)c12
7.40 | Oc1cc(-c2ncc3c(N4C[C@H]5CC[C@@H](C4)N5)cc(OC[C@@]45CCCN4C[C@H](F)C5)nc3c2F)c2c(F)cccc2c1
7.34 | CCc1c(F)ccc2cc(O)cc(-c3ncc4c(N5C[C@H]6CC[C@@H](C5)N6)cc(OC[C@@]56CCCN5C[C@H](F)C6)nc4c3F)c12
8.10 | C#Cc1c(F)ccc2cc(O)cc(-c3ncc4c(N5C[C@H]6CC[C@@H](C5)N6)cc(OC[C@@]56CCCN5C[C@H](F)C6)nc4c3F)c12
